The assay concerns human neuroblastoma cell line. In words: Release of noradrenaline induced by TPA/Ionomycin in a neuroblastoma cell line, quantified by ELISA. The class given is cell-based. To be noted: TPA/ION control = 100.00. As for the experimental part:
Quantification of the Release of Noradrenaline Induced by TPA/Ionomycin in a Neuroblastoma Cell Line by ELISA
The induction of the release of noradrenaline with TPA (12-O-tetradecanoylphorbol-13-acetate)/lonomycin enables direct measurement of neuronal exocytosis. For the study of the inhibitory effect of the compounds of the invention on the release of noradrenaline, cells of a human neuroblastoma cell line were pre-incubated (1×10^6 cells/well) for 60 minutes with the compound of the invention (1 μM, 10 μM, 100 μM, 500 μM or 1 mM compounds), and afterward the release of noradrenaline was induced. The release of the noradrenaline neurotransmitter was induced by an 8 minute pre-treatment with a solution of 12-O-tetradecanoylphorbol-13-acetate (TPA) 100 nM, which mobilized the intracellular vesicles which contained the neurotransmitter; followed by a 5 minute incubation with TPA/Ionomycin (100 nM/10 μM), which induced the release of the neurotransmitter contained in these vesicles. […] For this, absorbance at 405 nm was measured in Thermo Scientific Multiskan Ascent equipment.
The blocking of the SNARE complex by the compounds of the invention lead to an inhibition of neuronal exocytosis and therefore, a decrease in the levels of released noradrenaline (Table 6).
On the technique in general: ELISA stands for enzyme-linked immunosorbent assay.

Data on 3 substances can be found in US20150071974A1, “COMPOUNDS WHICH INHIBIT NEURONAL EXOCYTOSIS” (LUBRIZOL ADVANCED MATERIALS, INC., priority 2012, published 2015).

Turning to Ac-HQEHRKMD-NH2 [Ac-SEQ ID NO: 5-NH2], the “% RELEASED NORADRENALINE Average” value by setting is: (dose 10 μM) 85.68%; (dose 100 μM) 81.50%; (dose 1000 μM) 51.45%.
On the same counts, the results for Ac-QNLEHIMDQ-NH2 [Ac-SEQ ID NO: 62-NH2] are 77.76%, 82.72% and 63.99%.
On the same counts, the results for Ac-QQLENIMDN-NH2 [Ac-SEQ ID NO: 51-NH2] are 81.13%, 101.40% and 35.37%.
